In patent US20250127912A1, “COMPOSITIONS FOR DELIVERY OF POLYNUCLEOTIDES” (miRecule, Inc., priority 2021, published 2025):
No end group written: not given here. PEG1000 = N-terminal 1 kDa PEG spacer; PEG5000 = N-terminal 5 kDa PEG spacer; PEG2000 = PEG polymer of 2000 Da

Columns and labels:
[1] = Serum stability of miRNA mimic M30m3 alone or with cationic peptide/hybrid polymer in 5% human serum (TBE-urea gel); details: calculated based on first order decay comparing two time points; for Serum Stability at N/P1: M30m3 with polymer at N/P charge ratio 1, 37 C; for Serum Stability at N/P2: M30m3 with polymer at N/P charge ratio 2, 37 C
[2] = Biodistribution of IR750-NCD5 cetuximab conjugates in mice with orthotopic UM-SCC-1^luc tumors; details: 5 mg/kg IR750-NCD5 cetuximab conjugate, N/P of 1; 24 and 48 hours

Molecule | Serum Stability at N/P1 [1] [h] | Serum Stability at N/P2 [1] [h] | delivery to the tumor (IR-750 fluorescence) [2] | liver and kidney delivery (IR-750 fluorescence) [2]
N=C(N)NCCCCN [Agmatine, reference compound] | 20.78 | 17.33 | – | –
N=C(N)NCCC[C@H](N)C(=O)O [Arginine, reference compound] | 7.179 | 12.26 | – | –
N=C(N)NCCC[C@H](NC(=O)[C@H](CCCNC(=N)N)NC(=O)[C@H](CCCNC(=N)N)NC(=O)[C@H](CCCNC(=N)N)NC(=O)[C@H](CCCNC(=N)N)NC(=O)[C@H](CCCNC(=N)N)NC(=O)[C@H](CCCNC(=N)N)NC(=O)[C@H](CCCNC(=N)N)NC(=O)[C@H](CCCNC(=N)N)NC(=O)[C@H](CCCNC(=N)N)NC(=O)[C@H](CCCNC(=N)N)NC(=O)[C@H](CCCNC(=N)N)NC(=O)[C@@H](N)CS)C(=O)N[C@@H](CS)C(=O)O [CPolyArg12C] | 34.91 | 18.1 | – | –
M048 Alone: miR-30 mimic duplex M30m3 without polymer; guide SEQ ID NO: 38, passenger SEQ ID NO: 39 (guide UGUAAACAUCCUGCGACUGGAAG; sense UCCAGUCGAGGAUGUUUACA; modified_base 11 cm; modified_base 14 cm; modified_base 17 cm; modified_base 12 um; modified_base 18 um; modified_base 13 gm; modified_base 15 gm; modified_base 19 gm; modified_base 23 gm; modified_base 16 OTHER; 2'-O-methyladenosine; modified_base 22 OTHER; 2'-fluoroadenosine; misc_feature 21..22 phosphorothioate linkage; misc_feature 22..23 phosphorothioate linkage; misc_feature 1 amino C6 linker; modified_base 1 um; modified_base 2 cm; modified_base 3 cm; modified_base 19 cm; modified_base 18 OTHER; modified_base 20 OTHER) | 21.57 | – | – | –
[PEG12]RRRRRR [PEG12PolyArg6] | 19.74 | 27.96 | – | –
[PEG12]RRRRRRRRRRRR (N-terminal PEG12; MOD_RES 1 N-terminal PEG12 spacer) [PEG12PolyArg12] | – | – | markedly improves delivery to the tumor | reduces liver and kidney delivery
[PEG12]RdRdRdRdRdRdRdRdRd [PEG12PolyArg9d] | 24.7 | 29.03 | – | –
[PEG12]RdRdRdRdRdRdRdRdRdRdRdRd (RRRRRRRRRRRR; N-terminal PEG12; D-arginines; MOD_RES 1 N-terminal PEG12 spacer; MOD_RES 1..12 D-Arginine) [PEG12PolyArg12{d}] | 57.63 | 90.35 | – | –
[PEG12][PEG12]RRRRRRRRRRRR (N-terminal PEG24; MOD_RES 1 N-terminal PEG24 spacer) [PEP24PolyArg12] | 21.21 | 39.41 | – | –
[PEG1000]-RRRRRRRRRRRR (PEG1000-RRRRRRRRRRRR) [PEG1000DaPolyArg12] | 33.58 | 20.29 | – | –
[PEG2000]-RRRRRRRRRRRR (PEG2000-RRRRRRRRRRRR) [PEG2000DaPolyArg12] | 15 | 46.67 | – | –
[PEG5000]-RRRRRRRRRRRR (PEG5000-RRRRRRRRRRRR) [PEG5000DaPolyArg12] | 14.08 | 20.91 | – | –

More lines, main results first:

Serum Stability at N/P1 [1] [h] | Serum Stability at N/P2 [1] [h] | Molecule | delivery to the tumor (IR-750 fluorescence) [2] | liver and kidney delivery (IR-750 fluorescence) [2]
26.74 | 22.23 | NC(N)=NCCC[C@H](NC(=O)[C@H](CCCN=C(N)N)NC(=O)[C@H](CCCN=C(N)N)NC(=O)[C@H](CCCN=C(N)N)NC(=O)[C@H](CCCN=C(N)N)NC(=O)[C@@H](N)CCCN=C(N)N)C(=O)O [PolyArg6, RRRRRR] | – | –
25.99 | 31.12 | N=C(N)NCCC[C@H](NC(=O)[C@H](CCCNC(=N)N)NC(=O)[C@H](CCCNC(=N)N)NC(=O)[C@H](CCCNC(=N)N)NC(=O)[C@H](CCCNC(=N)N)NC(=O)[C@H](CCCNC(=N)N)NC(=O)[C@H](CCCNC(=N)N)NC(=O)[C@H](CCCNC(=N)N)NC(=O)[C@H](CCCNC(=N)N)NC(=O)[C@H](CCCNC(=N)N)NC(=O)[C@H](CCCNC(=N)N)NC(=O)[C@@H](N)CCCNC(=N)N)C(=O)N[C@@H](CS)C(=O)O [PolyArg12C] | – | –
18.95 | 12.98 | NCCCNCCCCNCCCN [Spermine, reference compound] | – | –
19.96 | 19.2 | RRRRRRRRRRRR-[NHS Ester-BranchedPEG2kda] [PolyArg12bp2kDa] | – | –
19.21 | 16.9 | RTRRTRRTRRTRRTRRTR [PolyArg12Tinsert] | – | –
25.6 | 18.06 | TTTTTTRRRRRRRRRRRR [T6PolyArg12] | – | –
